According to patent publication US20210323950A1, “HERBICIDALLY ACTIVE BICYCLIC BENZOYLPYRAZOLES” (Bayer Aktiengesellschaft, priority 2018, published 2021):

How the values were obtained:
Type in all cases: in vivo
Conditions in all cases: 320 g/ha, scored visually after about 3 weeks vs untreated controls
[1] = test system: Amaranthus retroflexus (AMARE); test: Pre-emergence herbicidal action against AMARE
Procedure, shortened: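 Formulated compounds (WP or EC) sprayed onto soil covering sown seeds, with 0.5% additive at […] water (converted). Greenhouse-grown about 3 weeks, then damage scored visually as percent versus untreated controls (100% = dead, 0% = like control).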

[2] = test system: Echinochloa crus-galli (ECHCG); test: Pre-emergence herbicidal action against ECHCG
Description: (§1) ECHCG: Echinochloa crus-galli 1. Pre-Emergence Herbicidal Action and Crop Plant Compatibility Seeds of monocotyledonous and dicotyledonous weed plants and crop plants are placed in plastic or organic planting pots and covered with soil. The compounds of the invention, formulated in the form of wettable powders (WP) or as emulsion concentrates (EC), are then applied onto the surface of the covering soil as aqueous suspension or emulsion with addition of 0.5% additive at a water application rate of […] (converted). After the treatment, the pots are placed in a greenhouse and kept under good growth conditions for the trial plants. After about 3 weeks, the effect of the preparations is scored visually in comparison with untreated controls as percentages. The tables below show the herbicidal activity of numerous compounds according to the invention against important harmful plants. For example, 100% activity=the plants have died, 0% activity=like control plants.

[3] = test system: Abutilon theophrasti (ABUTH); test: Pre-emergence herbicidal action against ABUTH
Description: as §1, with “ABUTH: Abutilon theophrasti” for “ECHCG: Echinochloa crus-galli”

[4] = test system: Veronica persica (VERPE); test: Pre-emergence herbicidal action against VERPE
Description: as §1, with “VERPE: Veronica persica” for “ECHCG: Echinochloa crus-galli”

[5] = test system: Stellaria media (STEME); test: Pre-emergence herbicidal action against STEME
Procedure, shortened: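 Weed seeds are sown in pots under soil, and WP or EC formulations are applied pre-emergence to the soil surface as an aqueous suspension or emulsion with 0.5% additive. After about 3 weeks in the greenhouse, effect is scored visually as % versus untreated controls (100% = plants dead, 0% = like control).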

[6] = test system: Setaria viridis (SETVI); test: Pre-emergence herbicidal action against SETVI
Description: as §1, with “SETVI: Setaria viridis” for “ECHCG: Echinochloa crus-galli”

[7] = test system: Cyperus esculentus (CYPES); test: Pre-emergence herbicidal action against CYPES
Description: as §1, with “CYPES: Cyperus esculentus” for “ECHCG: Echinochloa crus-galli”

[8] = test system: Viola tricolor (VIOTR); test: Pre-emergence herbicidal action against VIOTR
Description: as §1, with “VIOTR: Viola tricolor” for “ECHCG: Echinochloa crus-galli”

Cn1ncc(C(=O)c2ccc(C(F)(F)F)c3c2OCS3(=O)=O)c1O [Example 1-43]
100%: Pre-emergence action against AMARE [1] | Pre-emergence action against ECHCG [2] | Pre-emergence action against VERPE [4] | Pre-emergence action against SETVI [6] | Pre-emergence action against CYPES [7] | Pre-emergence action against VIOTR [8]
90%: Pre-emergence action against ABUTH [3] | Pre-emergence action against STEME [5]
